Key:
[1] = tested on: SH-SY5Y (human neuroblastoma) cell line; test: xCELLigence Real Time Cell Analysis (RTCA) of cell viability/proliferation
Description: (§1) This study utilized SH-SY5Y (human neuroblastoma) cell lines. […] After dissolving the cell line stored in a nitrogen tank for long-term use, the cells were removed from the culture dish with a 0.25 Trypsin/EDTA solution when they reached 70% density in the culture flasks. The cells were incubated in DMEM (Capricorn) supplemented with 10% heat-inactivated fetal bovine serum (FBS) and 0.1 mg/ml of penicillin at 37°C with 5% CO2. The medium was refreshed every 48 hours, and passages were made every 5 days based on cell confluency.
RTCA system is an analytical technique that follows cellular events such as proliferation by measuring the electric impedance passing through microelectrodes integrated beneath 96-well special plates in real-time. A 16-well e-plate compatible with the RTCA device was used, with 8 wells by 2. Firstly, 100 μl of cell culture was added to the plates to obtain the background density. Then, 3x10^4 cells were seeded in 100 μl of culture medium on top of the culture. After 24 h, the determined concentration ranges were applied.
Therefore, in this study, the concentrations of 5-10-15-25-50 μM were applied to find the optimum dose. […] There was only one study on a different cell line for quinine. […] The concentration range of 25-50-60-70-75-80-100 μM was chosen for etoperidone based on cell viability tests conducted with its analogue, trazadone.
For each selected dose, the drug was applied to two different wells. The first two wells were designated as the control group without drug application. The growth curve data was obtained from the graph generated by the device 48 h after drug application. The RTCA was repeated three times for each drug group. The IC50 calculations and the percent cell viability graphs compared to the control group were obtained from the data obtained from the three repeats.
(§2) All the analysis data from the RTCA device and the data generated from the MARS application using the microplate reader (OMEGA) were calculated in the GraphPad Prism 9.5.1 version using the ordinary one-way ANOVA multiple comparisons Tukey test. The results were graphically represented in Excel. Logarithmic calculations were made from the dose-response graph in Excel to obtain the IC50 values.

[2] = tested on: SH-SY5Y (human neuroblastoma) cell line; test: MTT cell viability assay; details: 48 h
Description: as §1
The MTT (3-(4,5-dimethylthiazol-2-yl)-2,5-diphenyltetrazolium bromide) assay is a commonly used colorimetric assay to measure cellular viability. […] The amount of formazan produced can be measured by determining the absorbance of the solution at a specific wavelength, which is proportional to the number of viable cells. This assay is widely used in cell biology and drug discovery research to evaluate the cytotoxic effects of various agents on cell viability.
In this study, the MTT assay was selected as the cell viability test. 12,500 cells were seeded per well in a 96-well plate. The cells were then incubated at 37°C with 5% CO2 for 24 h. After 24 h, the old medium was removed and drugs prepared by serial dilution in 100 μl of DMEM within the determined concentration range were applied to three wells, with one well selected as a control (untreated). The plate was then incubated at 37°C with 5% CO2 for another 48 h. After 48 h, […] of 10% MTT (Roche) solution in DMEM was added to each well, and two empty wells were added with only MTT solution for background measurement. After 4 h, 100 μl of solubilizing buffer was added to each well. The plate was incubated at 37°C with 5% CO2 for 16 h. After 16 h, the cell number in each sample was determined by measuring the absorbance spectrophotometrically at […] using a microplate reader (OMEGA). The data was used to determine the percentage relative to the control and create a dose-cell viability graph.
as §2

With `CCc1nn(CCCN2CCN(c3cccc(Cl)c3)CC2)c(=O)n1CC` [Etoperidone] the “concentration that significantly reduced cell viability compared to the control group (p < 0.001)” value ([1]; 48 h, RTCA) was 100 µM, the “concentration up to which no cytotoxicity was observed (cell index)” value ([1]; 48 h, RTCA) was no more than 70 µM and the “safe optimum concentration that does not harm cell viability” value ([1]; based on both RTCA and MTT) was 70 µM. The “concentration (and below) with cell viability close to the control, no cytotoxicity” value (“concentration (and below) … no cytotoxicity” below) [2] was no more than 70 µM and the “cytotoxic concentration in correlation with RTCA findings” value (shortened to “cytotoxic concentration in correlation”) [2] was 100 µM.
For `Nc1nc2[nH]cc(CN[C@H]3C=C[C@H](O)[C@@H]3O)c2c(=O)[nH]1` [Queuine], the “concentration that significantly reduced cell viability compared to the control group (p < 0.001)” value ([1]; 48 h, RTCA) was 5 µM, the “concentration up to which no cytotoxicity was observed (cell index)” value ([1]; 48 h, RTCA) was no more than 1.25 µM and the “safe optimum concentration that does not harm cell viability” value ([1]; based on both RTCA and MTT) was 1.25 µM. For the same compound, the “concentration (and below) … no cytotoxicity” value [2] was no more than 1.25 µM and the “cytotoxic concentration in correlation” value [2] was 5 µM.
With `Cc1ncc(C[n+]2csc(CCO)c2C)c(N)n1` [Thiamine] the “concentration up to which no cytotoxicity was observed (cell index)” value ([1]; 48 h, RTCA) was no more than 4800 µM, the “cytotoxicity” value ([1]; 48 h, RTCA, 150-4800 μM) was “no significant cytotoxicity at any applied concentration” and the IC50 ([1]; Homo sapiens, 48 h, read-out: IC50 ± SEM) was 18.8 mM. For the same compound, the “harmful effect on cell viability” value ([1]; based on both RTCA and MTT) was “no dose of Thiamine applied exhibited harmful effects” and the “cytotoxicity” value [2] was “did not show any cytotoxic effect at any concentration”.
`COc1ccc2c3c1O[C@H]1C[C@@H](O)C=C[C@@]31CCN(C)C2` [Galantamine] was tested, and the “concentration that significantly reduced cell viability compared to the control group (p < 0.001)” value ([1]; 48 h, RTCA) was 100 µM, the “concentration up to which no cytotoxicity was observed (cell index)” value ([1]; 48 h, RTCA) was no more than 10 µM and the “concentration that significantly reduced cell viability compared to the control group (p < 0.001)” value ([1]; 48 h, RTCA, listed as galantamine) was 25 to 50 µM. The “safe optimum concentration that does not harm cell viability” value ([1]; based on both RTCA and MTT) was 10 µM, the “concentration (and below) … no cytotoxicity” value [2] was no more than 10 µM and the “cytotoxic concentration in correlation” value [2] was 25 µM.

— paper PMC10138233 (PLOS ONE, 2023)
